Results published in US20100099561A1, “HETEROBICYCLIC ALKYLTHIO-BRIDGED ISOXAZOLINES” (E.I. DU PONT DE NEMOURS AND COMPANY, priority 2008, published 2010).

Tests used:
Assay type in all cases: in vivo
[1] = system: barnyardgrass (Echinochloa crus-galli); assay: Test A preemergence, barnyardgrass; conditions: 0 to 100 scale (0 no effect, 100 complete control)
Excerpt: (§1) Seeds of barnyardgrass (Echinochloa crus-galli), large crabgrass (Digitaria sanguinalis), giant foxtail (Setaria faberi), morningglory (Ipomoea spp.), pigweed (Amaranthus retroflexus), velvetleaf (Abutilon theophrasti), wheat (Triticum aestivum), and corn (Zea mays) were planted into a blend of loam soil and sand and treated preemergence with a directed soil spray using test chemicals formulated in a non-phytotoxic solvent mixture which included a surfactant. At the same time these species were also treated with postemergence applications of test compounds formulated in the same manner. Plants ranged in height from two to ten cm and were in the one- to two-leaf stage for the postemergence treatment. Treated plants and untreated controls were maintained in a greenhouse for approximately ten days, after which time all treated plants were compared to untreated controls and visually evaluated for injury. Plant response ratings, summarized in Table A, are based on a 0 to 100 scale where 0 is no effect and 100 is complete control. A dash (-) response means no test result.

[2] = system: large crabgrass (Digitaria sanguinalis); assay: Test A preemergence, large crabgrass; conditions: 0 to 100 scale (0 no effect, 100 complete control)
Excerpt: as §1

[3] = system: giant foxtail (Setaria faberi); assay: Test A preemergence, giant foxtail; conditions: 0 to 100 scale (0 no effect, 100 complete control)
Excerpt: as §1

[4] = system: morningglory (Ipomoea spp.); assay: Test A preemergence, morningglory; conditions: 0 to 100 scale (0 no effect, 100 complete control)
Excerpt: as §1

[5] = system: pigweed (Amaranthus retroflexus); assay: Test A preemergence, pigweed; conditions: 0 to 100 scale (0 no effect, 100 complete control)
Excerpt: as §1

[6] = system: velvetleaf (Abutilon theophrasti); assay: Test A preemergence, velvetleaf; conditions: 0 to 100 scale (0 no effect, 100 complete control)
Excerpt: as §1

[7] = system: wheat (Triticum aestivum); assay: Test A preemergence, wheat; conditions: 0 to 100 scale (0 no effect, 100 complete control)
Excerpt: as §1

corn (Zea mays) [8] = assay: Test A preemergence, corn; conditions: 0 to 100 scale (0 no effect, 100 complete control)
Excerpt: as §1

[9] = system: barnyardgrass (Echinochloa crus-galli); assay: Test A postemergence, barnyardgrass; conditions: 0 to 100 scale (0 no effect, 100 complete control)
Excerpt: as §1

[10] = system: large crabgrass (Digitaria sanguinalis); assay: Test A postemergence, large crabgrass; conditions: 0 to 100 scale (0 no effect, 100 complete control)
Excerpt: as §1

[11] = system: giant foxtail (Setaria faberi); assay: Test A postemergence, giant foxtail; conditions: 0 to 100 scale (0 no effect, 100 complete control)
Excerpt: as §1

[12] = system: morningglory (Ipomoea spp.); assay: Test A postemergence, morningglory; conditions: 0 to 100 scale (0 no effect, 100 complete control)
Excerpt: as §1

[13] = system: pigweed (Amaranthus retroflexus); assay: Test A postemergence, pigweed; conditions: 0 to 100 scale (0 no effect, 100 complete control)
Excerpt: as §1

[14] = system: velvetleaf (Abutilon theophrasti); assay: Test A postemergence, velvetleaf; conditions: 0 to 100 scale (0 no effect, 100 complete control)
Excerpt: as §1

[15] = system: wheat (Triticum aestivum); assay: Test A postemergence, wheat; conditions: 0 to 100 scale (0 no effect, 100 complete control)
Excerpt: as §1

corn (Zea mays) [16] = assay: Test A postemergence, corn; conditions: 0 to 100 scale (0 no effect, 100 complete control)
Excerpt: as §1

rice (Oryza sativa) = assay: Test B flooded paddy test, rice; conditions: Flood, scale 0 to 100
Excerpt: (§2) Plant species in the flooded paddy test consisted of rice (Oryza sativa), umbrella sedge (Cyperus difformis), ducksalad (Heteranthera limosa) and barnyardgrass (Echinochloa crus-galli) grown to the 2-leaf stage for testing. At time of treatment, test pots were flooded to 3 cm above the soil surface, treated by application of test compounds directly to the paddy water, and then maintained at that water depth for the duration of the test. Treated plants and controls were maintained in a greenhouse for 13 to 15 days, after which time all species were compared to controls and visually evaluated. Plant response ratings, summarized in Table B, are based on a scale of 0 to 100 where 0 is no effect and 100 is complete control. A dash (-) response means no test result.

[17] = system: umbrella sedge (Cyperus difformis); assay: Test B flooded paddy test, umbrella sedge; conditions: Flood, scale 0 to 100
Excerpt: as §2

[18] = system: ducksalad (Heteranthera limosa); assay: Test B flooded paddy test, ducksalad; conditions: Flood, scale 0 to 100
Excerpt: as §2

[19] = system: barnyardgrass (Echinochloa crus-galli); assay: Test B flooded paddy test, barnyardgrass; conditions: Flood
Excerpt: as §2

Cc1cc2nc(C(F)(F)F)c(C[S+]([O-])C3=NOC(C)(C)C3)c(=O)n2o1 (centres unmarked) [Compound 50]
70: Plant response rating, Barnyardgrass ([1]; 500 g ai/ha) | Plant response rating, Crabgrass, Large ([2]; 500 g ai/ha) | Plant response rating, Foxtail, Giant ([3]; 500 g ai/ha)
60: Plant response rating, Barnyardgrass ([9]; 500 g ai/ha) | Plant response rating, Foxtail, Giant ([11]; 500 g ai/ha)
10: Plant response rating, Morningglory ([12]; 500 g ai/ha)
50: Plant response rating, Crabgrass, Large ([10]; 500 g ai/ha)
0: Plant response rating, Barnyardgrass ([1]; 125 g ai/ha) | Plant response rating, Crabgrass, Large ([2]; 125 g ai/ha) | Plant response rating, Foxtail, Giant ([3]; 125 g ai/ha) | Plant response rating, Morningglory ([4]; 125 g ai/ha) | Plant response rating, Morningglory ([4]; 500 g ai/ha) | Plant response rating, Pigweed ([5]; 125 g ai/ha) | Plant response rating, Pigweed ([5]; 500 g ai/ha) | Plant response rating, Velvetleaf ([6]; 125 g ai/ha) | Plant response rating, Velvetleaf ([6]; 500 g ai/ha) | Plant response rating, Wheat ([7]; 125 g ai/ha) | Plant response rating, Wheat ([7]; 500 g ai/ha) | Plant response rating, Corn (corn (Zea mays) [8]; 125 g ai/ha) | Plant response rating, Corn (corn (Zea mays) [8]; 500 g ai/ha) | Plant response rating, Barnyardgrass ([9]; 125 g ai/ha) | Plant response rating, Crabgrass, Large ([10]; 125 g ai/ha) | Plant response rating, Foxtail, Giant ([11]; 125 g ai/ha) | Plant response rating, Morningglory ([12]; 125 g ai/ha) | Plant response rating, Pigweed ([13]; 125 g ai/ha) | Plant response rating, Pigweed ([13]; 500 g ai/ha) | Plant response rating, Velvetleaf ([14]; 125 g ai/ha) | Plant response rating, Velvetleaf ([14]; 500 g ai/ha) | Plant response rating, Wheat ([15]; 125 g ai/ha) | Plant response rating, Wheat ([15]; 500 g ai/ha) | Plant response rating, Corn (corn (Zea mays) [16]; 125 g ai/ha) | Plant response rating, Rice (rice (Oryza sativa); 62 g ai/ha) | Plant response rating, Rice (rice (Oryza sativa); 250 g ai/ha) | Plant response rating, Sedge, Umbrella ([17]; 62 g ai/ha) | Plant response rating, Sedge, Umbrella ([17]; 250 g ai/ha) | Plant response rating, Ducksalad ([18]; 62 g ai/ha) | Plant response rating, Ducksalad ([18]; 250 g ai/ha) | Plant response rating, Barnyardgrass ([19]; 62 g ai/ha, scale 0 to 100) | Plant response rating, Barnyardgrass ([19]; 250 g ai/ha, scale 0 to 100 (0 no effect, 100 complete control))
30: Plant response rating, Corn (corn (Zea mays) [16]; 500 g ai/ha)

CC1(C)CC(S(=O)(=O)Cc2c(C(F)(F)Cl)nc3n(c2=O)CCCC3)=NO1 [Compound 30]
100: Plant response rating, Barnyardgrass ([1]; 500 g ai/ha) | Plant response rating, Crabgrass, Large ([2]; 500 g ai/ha) | Plant response rating, Foxtail, Giant ([3]; 500 g ai/ha) | Plant response rating, Pigweed ([5]; 500 g ai/ha)
90: Plant response rating, Crabgrass, Large ([2]; 125 g ai/ha) | Plant response rating, Foxtail, Giant ([3]; 125 g ai/ha)
80: Plant response rating, Barnyardgrass ([9]; 500 g ai/ha) | Plant response rating, Crabgrass, Large ([10]; 500 g ai/ha) | Plant response rating, Foxtail, Giant ([11]; 500 g ai/ha)
40: Plant response rating, Morningglory ([4]; 500 g ai/ha) | Plant response rating, Velvetleaf ([6]; 125 g ai/ha)
60: Plant response rating, Velvetleaf ([6]; 500 g ai/ha) | Plant response rating, Barnyardgrass ([9]; 125 g ai/ha) | Plant response rating, Crabgrass, Large ([10]; 125 g ai/ha) | Plant response rating, Foxtail, Giant ([11]; 125 g ai/ha) | Plant response rating, Pigweed ([13]; 500 g ai/ha)
20: Plant response rating, Velvetleaf ([14]; 125 g ai/ha)
30: Plant response rating, Morningglory ([4]; 125 g ai/ha)
70: Plant response rating, Pigweed ([5]; 125 g ai/ha)
50: Plant response rating, Barnyardgrass ([1]; 125 g ai/ha) | Plant response rating, Wheat ([7]; 500 g ai/ha) | Plant response rating, Morningglory ([12]; 500 g ai/ha) | Plant response rating, Pigweed ([13]; 125 g ai/ha) | Plant response rating, Velvetleaf ([14]; 500 g ai/ha) | Plant response rating, Wheat ([15]; 500 g ai/ha)
0: Plant response rating, Wheat ([7]; 125 g ai/ha) | Plant response rating, Corn (corn (Zea mays) [8]; 125 g ai/ha) | Plant response rating, Corn (corn (Zea mays) [8]; 500 g ai/ha) | Plant response rating, Wheat ([15]; 125 g ai/ha) | Plant response rating, Corn (corn (Zea mays) [16]; 125 g ai/ha) | Plant response rating, Corn (corn (Zea mays) [16]; 500 g ai/ha) | Plant response rating, Rice (rice (Oryza sativa); 31 g ai/ha) | Plant response rating, Rice (rice (Oryza sativa); 125 g ai/ha) | Plant response rating, Sedge, Umbrella ([17]; 31 g ai/ha) | Plant response rating, Sedge, Umbrella ([17]; 125 g ai/ha) | Plant response rating, Ducksalad ([18]; 31 g ai/ha) | Plant response rating, Ducksalad ([18]; 125 g ai/ha) | Plant response rating, Barnyardgrass ([19]; 31 g ai/ha, scale 0 to 100) | Plant response rating, Barnyardgrass ([19]; 125 g ai/ha, scale 0 to 100)
10: Plant response rating, Morningglory ([12]; 125 g ai/ha)
